Results on one compound are retold here after PMC10327353 (Breast Cancer Research : BCR, 2023).

The structures appear in SMILES notation. Like-named read-outs stand apart in the source and are kept apart here.

In data set [1] the test system is CYP P450s. Kind of data set: CYP P450 inhibition and induction. Type of data set: in vitro ADME. The settings on record: in vitro.
Data set [2] concerns the target HER2 (Homo sapiens, UniProt P04626). The data set can be described thus: pHER2 MSD assay in BT474C1 cells. Also noted: endogenous in cells; host or cells: BT474C1-Luci Mono1 (BT474 transfected with luciferase only). It is filed as cell-based. The settings on record: BT474C1, 4 hrs treatment. As to the method: (§1) A431 and BT474C1-Luci Mono1 cells were seeded in 96-well plates at 20,000 cells/well in DMEM medium containing 1% FBS. After overnight incubation, all cells were treated with compounds at a series of concentrations for 4 hrs. For A431 cell line, an extra stimulation with recombinant human EGF (100 ng/ml for 10 minutes) is applied to activate wild-type EGFR following compound treatment. pEGFR^Y1068 and total EGFR levels were measured by an electro chemiluminescent method (MULTI-SPOT®96 4-Spot HB Prototype EGFR Triplex […]: pEGFR (Y1068), Total EGFR; MESO SCALE DISCOVERY, Cat# N45ZB-1) with MSD SECTOR® Imager, which outputs the ratio of pEGFR/total EGFR for each well. pHER2^Y1248 and total HER2 levels were measured similarly using pHER2 (Y1248) Assay Whole Cell Lysate Kit (MESO SCALE DISCOVERY, Cat# K151CLD-3). The percentage of inhibition was calculated as: % Inhibition = 100 x [1 - (ratio of the sample well - ratio of Min ctrl well)/ (ratio of Max ctrl well - ratio of Min ctrl well)].

For data set [3], the target named is T1, wild-type EGFR (Homo sapiens, UniProt P00533).
T1 construct: endogenous in cells; host or cells: A431
The data set can be described thus: pEGFR MSD assay in A431 cells. It is filed as cell-based. The procedure:
as §1

For data set [4], the target named is potassium ion-channel hERG (Homo sapiens, UniProt Q12809). The data set can be described thus: hERG in vitro safety pharmacology. It is filed as biochemical. In general terms: Block of hERG is tested as a sign of cardiac risk.
Data set [5] deals with BT474C1-Luci Mono1 BM xenograft. Kind of data set: BM (brain metastasis) BT474C1-Luci Mono1 xenograft model. It is filed as in vivo, nude mice. As to the method: The BM model was established by intracerebral (ICB) injection of 4 µl of cell suspension containing 3 × 10^5 cells into each mouse following similar procedures published (30). In brieft, 17β- ESTRADIOL (90-day release 0.36 mg/pellet) were injected subcutaneously 24 hrs before cell inoculation. Under anesthesia, a sagittal incision (approximately 1 cm long) was made over the parieto-occipital bone using a sterile scalpel. Then a hole was punctured on the skull at 2.5 mm to the right of the bregma and 1 mm anterior to the coronal suture using a sterile 25-gauge sharp drill. […] The bioluminescent signals of the implanted cells were measured by the Xenogen IVIS spectrum imaging system (PerkinElmer, USA) to monitor tumor growth. […]
In both BM and LM models, the day of randomization was defined as Day 0 and the treatment was started one day after randomization. The bioluminescence signals and body weight of the mice were measured once weekly. Relative bioluminescence intensity on a specific day was calculated by dividing the bioluminescence intensity on that day by the bioluminescence intensity on Day 0. The tumour growth inhibition (TGI) was calculated by formula: TGI (%) = (1-(relative bioluminescence intensity of treated group)/(relative bioluminescence intensity of control group)) x 100.Establishment of SC model

In data set [6] the test system is BT474C1 cells. Kind of data set: Cell proliferation assay (CellTiter-Glo), BT474C1. Type of data set: cell-based, human. Particulars: Homo sapiens; BT474C1, 72 hrs. The procedure: BT474C1-Luci Mono1 cells were seeded in 384-well plates at 1500 cells/well in DMEM medium containing 10% FBS and 1 mM Oxaloacetic acid (OAA). A431 cells were seeded in 384-well plates at 1,000 cells/well in DMEM medium containing 10% FBS. After overnight incubation, cells were treated with compounds at various concentrations for 3 days. Then cell viability was measured using a CellTiter-Glo Luminescent Cell Viability Assay from Promega Corp. according to the manufacturer's instructions.
(In ATP-based viability assays light output follows the ATP content of the culture.)

Data set [7] in a line: Phase 1 study: plasma pharmacokinetics. Type of data set: in vivo, human. Particulars: for AUC(0-t): 250 mg. The procedure:
Blood samples for PK analyses of DZD1516 and DZ2678 were collected on C0D1. Samples were obtained at pre-dose and at 0.5, 1, 1.5, 2, 2.5, 3, 4, 6, 8, 10, 24, 48, and 72 h after the dose, while for C1D15, samples were obtained at pre-dose and 0.5, 1, 1.5, 2, 2.5, 3, 4, 6, 8, and 10 h after the dose. CSF samples for PK analyses of DZD1516 and its metabolite DZ2678 were collected from patients with BM (C1D15) and LM (C1D15 and C3D1) at steady state (Additional file 1). Plasma and CSF samples were analyzed by LabCorp Madison laboratory (Madison, WI, USA) and LabCorp Shanghai laboratory (Shanghai, China) using a validated LC/MS/MS bioanalytical method to determine DZD1516 and DZ2678 concentrations. Non-compartmental PK analysis was performed using Phoenix WinNonlin (Certara USA Inc., version 8.3.3.33).
Blood samples for PK analyses of DZD1516 and DZ2678 were collected on C0D1 and C1D15.
Plasma concentrations of analytes evaluated in this study were determined using validated bioanalytical methods at Labcorp Madison lab (Madison, WI, USA) and Labcorp Shanghai lab (Shanghai, China). Concentrations of analytes in human plasma containing K2EDTA as an anticoagulant was determined using plasma precipitation, followed by analysis using high-performance LC-MS/MS detection. Two bioanalytical methods used […] of plasma and were linear over the range of 5.00 (the lower limit of quantification) to 5000 ng/mL for DZD1516 and 2.00 (the lower limit of quantification) to 2000 ng/mL for DZ2678 (Labcorp Shanghai lab), 1.96 (the lower limit of quantification) to 1960 ng/mL for DZ2678 (Labcorp Madison lab). The analysis runs for all analytes were determined to have a high degree of reproducibility and acceptably low inter-run carryover, which was considered acceptable for PK quantification. The plasma samples were stored at –70°C until analysis. PK analyses were performed by using Phoenix WinNonLin (Certara USA, Inc., Version 8.1 or higher).

T1 sequence (P00533 25-1210): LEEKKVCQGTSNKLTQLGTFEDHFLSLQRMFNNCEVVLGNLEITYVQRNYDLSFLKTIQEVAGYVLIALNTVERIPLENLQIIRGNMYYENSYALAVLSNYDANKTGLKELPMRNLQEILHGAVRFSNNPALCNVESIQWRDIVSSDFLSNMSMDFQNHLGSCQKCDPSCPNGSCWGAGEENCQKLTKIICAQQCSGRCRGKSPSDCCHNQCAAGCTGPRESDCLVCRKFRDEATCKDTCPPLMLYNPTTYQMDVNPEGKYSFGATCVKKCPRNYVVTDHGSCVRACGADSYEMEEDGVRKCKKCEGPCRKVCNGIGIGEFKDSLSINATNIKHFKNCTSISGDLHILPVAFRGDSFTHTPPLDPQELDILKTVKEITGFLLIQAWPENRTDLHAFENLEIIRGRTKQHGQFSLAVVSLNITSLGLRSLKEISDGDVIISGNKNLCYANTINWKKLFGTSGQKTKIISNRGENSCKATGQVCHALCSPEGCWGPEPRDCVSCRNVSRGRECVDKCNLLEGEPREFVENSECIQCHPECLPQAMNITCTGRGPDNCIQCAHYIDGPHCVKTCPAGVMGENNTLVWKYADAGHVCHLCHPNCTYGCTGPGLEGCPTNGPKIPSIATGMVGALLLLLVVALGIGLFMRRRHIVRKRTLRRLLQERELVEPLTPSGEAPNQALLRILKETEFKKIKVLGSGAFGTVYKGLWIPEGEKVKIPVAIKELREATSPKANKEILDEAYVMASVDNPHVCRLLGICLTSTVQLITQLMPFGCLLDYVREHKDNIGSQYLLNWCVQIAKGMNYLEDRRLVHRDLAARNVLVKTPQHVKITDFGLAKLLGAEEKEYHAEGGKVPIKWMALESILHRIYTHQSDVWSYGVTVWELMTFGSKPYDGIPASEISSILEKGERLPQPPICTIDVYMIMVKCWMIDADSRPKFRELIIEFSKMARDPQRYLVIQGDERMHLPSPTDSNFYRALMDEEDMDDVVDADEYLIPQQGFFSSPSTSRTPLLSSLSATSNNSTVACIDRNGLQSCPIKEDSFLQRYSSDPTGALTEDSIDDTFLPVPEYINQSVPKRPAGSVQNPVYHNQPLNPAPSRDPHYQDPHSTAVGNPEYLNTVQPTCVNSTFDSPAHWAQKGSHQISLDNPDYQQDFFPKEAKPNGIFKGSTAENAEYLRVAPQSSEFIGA
Sequence of potassium ion-channel hERG (Q12809 whole entry): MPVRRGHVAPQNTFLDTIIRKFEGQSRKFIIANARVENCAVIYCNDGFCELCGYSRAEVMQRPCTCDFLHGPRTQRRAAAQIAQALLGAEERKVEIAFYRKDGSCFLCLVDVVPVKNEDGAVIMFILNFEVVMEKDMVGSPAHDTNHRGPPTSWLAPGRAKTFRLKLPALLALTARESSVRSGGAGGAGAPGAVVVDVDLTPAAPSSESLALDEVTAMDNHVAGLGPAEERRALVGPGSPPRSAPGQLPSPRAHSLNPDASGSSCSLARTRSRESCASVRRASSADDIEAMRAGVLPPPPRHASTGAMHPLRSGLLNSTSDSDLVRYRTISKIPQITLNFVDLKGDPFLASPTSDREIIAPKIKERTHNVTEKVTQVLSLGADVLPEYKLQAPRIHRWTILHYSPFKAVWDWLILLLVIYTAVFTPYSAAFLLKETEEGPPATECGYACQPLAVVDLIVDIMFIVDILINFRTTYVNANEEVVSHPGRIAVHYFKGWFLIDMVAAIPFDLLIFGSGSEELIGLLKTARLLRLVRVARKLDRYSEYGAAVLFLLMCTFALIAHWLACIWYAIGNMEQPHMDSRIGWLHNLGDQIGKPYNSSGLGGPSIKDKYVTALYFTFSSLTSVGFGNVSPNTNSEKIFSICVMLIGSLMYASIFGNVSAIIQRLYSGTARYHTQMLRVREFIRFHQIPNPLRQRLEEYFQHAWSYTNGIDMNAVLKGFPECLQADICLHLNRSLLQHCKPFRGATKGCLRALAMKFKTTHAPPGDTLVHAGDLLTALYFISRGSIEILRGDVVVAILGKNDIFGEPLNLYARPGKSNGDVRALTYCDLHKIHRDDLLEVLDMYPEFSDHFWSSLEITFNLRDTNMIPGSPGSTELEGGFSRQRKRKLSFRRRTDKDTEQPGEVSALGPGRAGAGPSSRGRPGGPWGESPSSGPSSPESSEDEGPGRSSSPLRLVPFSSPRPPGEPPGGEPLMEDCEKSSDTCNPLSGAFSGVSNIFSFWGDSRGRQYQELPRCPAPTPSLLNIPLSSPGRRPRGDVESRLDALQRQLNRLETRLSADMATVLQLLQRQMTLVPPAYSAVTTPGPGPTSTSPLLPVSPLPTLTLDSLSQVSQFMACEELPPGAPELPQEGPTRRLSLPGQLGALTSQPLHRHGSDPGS
Sequence of HER2 (P04626 23-1255): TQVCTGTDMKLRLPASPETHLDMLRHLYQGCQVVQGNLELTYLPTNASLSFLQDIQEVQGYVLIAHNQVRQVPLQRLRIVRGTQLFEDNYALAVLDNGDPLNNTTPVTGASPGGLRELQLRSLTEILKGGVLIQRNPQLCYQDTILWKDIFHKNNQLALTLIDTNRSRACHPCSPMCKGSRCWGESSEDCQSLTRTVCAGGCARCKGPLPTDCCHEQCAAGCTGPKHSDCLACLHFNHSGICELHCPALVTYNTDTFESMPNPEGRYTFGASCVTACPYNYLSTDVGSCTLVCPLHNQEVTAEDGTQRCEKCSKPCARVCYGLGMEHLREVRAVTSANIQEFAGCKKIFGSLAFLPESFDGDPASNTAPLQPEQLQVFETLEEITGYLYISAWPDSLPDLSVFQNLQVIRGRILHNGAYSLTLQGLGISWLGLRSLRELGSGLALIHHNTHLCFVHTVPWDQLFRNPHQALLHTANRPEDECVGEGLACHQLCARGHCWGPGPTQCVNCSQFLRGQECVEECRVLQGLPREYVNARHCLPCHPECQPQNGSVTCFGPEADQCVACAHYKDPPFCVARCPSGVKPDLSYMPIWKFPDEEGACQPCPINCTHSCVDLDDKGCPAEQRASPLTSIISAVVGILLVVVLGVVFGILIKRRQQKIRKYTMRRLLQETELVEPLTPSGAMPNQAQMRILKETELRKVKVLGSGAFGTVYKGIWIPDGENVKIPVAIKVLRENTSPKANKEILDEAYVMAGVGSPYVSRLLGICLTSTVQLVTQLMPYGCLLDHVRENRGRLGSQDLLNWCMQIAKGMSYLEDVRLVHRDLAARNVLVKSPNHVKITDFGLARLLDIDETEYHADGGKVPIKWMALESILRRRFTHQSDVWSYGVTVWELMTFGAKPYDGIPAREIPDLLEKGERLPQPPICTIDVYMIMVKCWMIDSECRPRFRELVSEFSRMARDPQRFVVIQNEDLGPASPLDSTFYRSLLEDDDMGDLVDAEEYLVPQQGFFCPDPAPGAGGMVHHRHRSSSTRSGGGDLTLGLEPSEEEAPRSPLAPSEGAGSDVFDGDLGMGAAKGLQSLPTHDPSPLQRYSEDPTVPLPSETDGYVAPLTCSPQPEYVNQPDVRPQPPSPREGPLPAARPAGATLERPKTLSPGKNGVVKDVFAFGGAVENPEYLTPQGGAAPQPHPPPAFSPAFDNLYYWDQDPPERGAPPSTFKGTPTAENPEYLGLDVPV

With `COc1cc(O[C@H]2CCN(C)CC2(F)F)c2c(Nc3ccc(Oc4ccn5ncnc5c4)c(C)c3)ncnc2c1` [DZD1516], in data set [1], the “CYP P450s inhibitor and inducer” value is “not a CYP P450s inhibitor and inducer”. For the same compound, the IC50 – broadly, the concentration that inhibits the measured activity by half – is 4.4 nM in data set [2]; 1460 nM in data set [3] (A431, 4 hrs treatment, EGF stimulation); 3290 nM in data set [4]. In addition, in data set [3] (pEGFR A431 vs pHER2 BT474C1), the “selectivity against wild-type EGFR” value is on record as “greater than 300 fold”. Also, the TGI (in general, how far tumour growth fell short of that in controls) in data set [5] (100 mg/kg twice daily) was 48%; in data set [5] (150 mg/kg twice daily) it was 79%. In data set [6], the 50% growth inhibitory concentration (GI50) (as a rule, the concentration that inhibits growth by half) was 20 nM. For the same compound, the “Css,max, Geometric Mean [CV%]” value in data set [7] (Day 15, 250 mg BID DZD1516) is 1410[44.64] ng/mL. In addition, in data set [7] (Day 15, 250 mg BID DZD1516), the “Css,min, Geometric Mean [CV%]” value was 442.8[50.12] ng/mL. Also, the “tss,max, Median (Min, Max)” value in data set [7] (Day 15, 250 mg BID DZD1516) is 1.483(0.533,2.47) hr. Besides, the AUC(0-t) in data set [7] (human, plasma, oral, Day 1, 250 mg DZD1516, read-out: AUC0-10, Geometric Mean [CV%]) worked out at 6160 ng·h/mL; in data set [7] (human, plasma, oral, Day 1, 250 mg DZD1516, read-out: AUC0-72, Geometric Mean [CV%]) it was 13200 ng·h/mL; in data set [7] (human, plasma, oral, Day 15, 250 mg BID DZD1516, read-out: AUC0-10, Geometric Mean [CV%]), 7560 ng·h/mL. For the same compound, the Cmax (as a rule, the peak of the concentration-time curve) in data set [7] (human, plasma, oral, Day 1, 250 mg DZD1516, read-out: Cmax, Geometric Mean [CV%]) was 1330 ng/mL. Moreover, the half-life was 19.8 h in data set [7] (human, plasma, oral, Day 1, 250 mg DZD1516, read-out: t1/2, Mean (SD) (converted)) and 13.3 to 20.1 h in data set [7] (human, plasma, oral, patients, read-out: half-life). Besides, the Tmax (commonly the time from dosing to the highest level) in data set [7] (human, plasma, oral, Day 1, 250 mg DZD1516, read-out: tmax, Median (Min, Max)) was 2.85 h; in data set [7] (human, plasma, patients, single oral administration 50 to 300 mg, read-out: median tmax), 2.15 to 3.22 h. Moreover, the AUC in data set [7] (human, plasma, oral, Day 15, 250 mg BID DZD1516, read-out: AUCtau, Geometric Mean [CV%]) was determined as 8340 ng·h/mL. The accumulation entry in data set [7] (steady state, 15 days of twice daily dosing) is on record as “approximately twofold”.
